From publication PMC12195231, “Afil, a Lectin from Aplysina fistularis, Exhibits Antibiofilm and Synergistic Antibacterial Activity Against Resistant Bacteria” (Microorganisms, 2025)

Biological target: T1, AfiL
T1 construct: native, purified from sponge tissue (ammonium sulfate, Sepharose 4B, lactose elution); 70 kDa disulfide-linked dimer, ~30 kDa subunits; internal stretch […]
Test: isothermal titration calorimetry
Assay type: binding, Aplysina fistularis
Details: TBS (20 mM Tris-HCl pH 7.6, 150 mM NaCl), 25 °C; one-set-of-sites model

- Kd: 10.2 µM
Compound: OC[C@H]1O[C@@H](O[C@H]2[C@H](O)[C@@H](O)C(O)O[C@@H]2CO)[C@H](O)[C@@H](O)[C@H]1O (stereo partly drawn) [D-lactose]
